Data: patent US11766444B2, “Pharmaceutical composition for preventing or treating degenerative brain disorders including HDL-APOM-S1P as active ingredient” (Kyungpook National University Industry-Academic Cooperation …, priority 2017, dated 2023)

Experiments:
[1] = S1P, ApoM, HDL-S1P and HDL-ApoM levels in plasma of APP/PS1 mice after HDL-ApoM-S1P loading; format: in vivo, mouse; details: i.v. 25 μl twice a week for 4 weeks (8 times), vs untreated APP/PS1 mice
Text: (§1) Transgenic mice overexpressing hAPP695swe (APPswe) and presenilin-1M146V (PS1) mutations were used as mouse models of the Alzheimer's disease. These are mouse lines produced by GlaxoSmithKline (Harlow, UK) with the standard technology for C57BL background (Charles River, UK), which double heterozygote mutant mice (APP/PS1 tg mice) were produced by backcrossing APPswe mice with pure C57BL/6 backgrounds and crossing PS1 mice
(§2) After collecting blood from mice, the obtained blood was separated into erythrocytes and plasma by centrifugation. The separated erythrocytes are reacted with 10 uM sphingosine at 37° C. for 1 hour, and then reacted for 1 hour at 37° C. after mixing again with the separated plasma. After completion of the reaction, erythrocytes and plasma were separated by centrifugation, and only the plasma was collected again. The plasma thus obtained was loaded with S1P in HDL (HDL-ApoM-S1P loading), which was illustrated in FIG. 1.
The plasma solution thus obtained was intravenously injected 25 μl into mice twice a week for 4 weeks (total 8 times) according to the experimental outline shown in FIG. 2. As a control group, 3 μM S1P (Avanti) and […] ApoM (Mybiosource, SEQ ID NO: 1) were injected intravenously with 25 μl in mice twice a week for 4 weeks (eight times in total).
To collect blood from mouse models (APP/PS1 tg mice or APP/PS1/ApoM tg mice) and normal control mice (WT), the mice were anesthetized first, and 500 μl to 700 μl of blood were collected in heparin tubes (BD Falcon) by cardiac drawing. Each blood sample was then centrifuged at 1,200 rpm for 5 minutes to separate plasma from the supernatant. This plasma sample was stored at −80° C. before being used for analysis.
60 μl of plasma sample was placed in the ultrafast centrifuge tube, and then the same amount of PBS (Gibco) solution was added to form a layer on the plasma. A high speed centrifuge (HITACHI cp100wx Centrifuge P70AT rotor) was used to centrifuge at 70,000 rpm for 3 hours at 4° C. 60 μl of the lower layer of the sample separated into two layers was transferred into a new ultra-centrifuge tube. […]
Extraction and quantification of S1P was performed in the following manner. […] The dried lipid extract was resuspended in 25 μl of 0.2% Igepal CA-630 (Sigma-Aldrich), and the concentration level of each lipid was quantified by the UPLC system using the column ACQUITY BEH Shield RP18 1.7 μm 2.1×50 mm (186002853) and 0.1% of NH4OH.
Using a commercial ELISA kit (CUSABIO Human ApoM ELISA Kit and Mouse ApoM ELISA Kit), the amount of apolipoprotein M (ApoM) contained in the mouse plasma or HDL fractionated therefrom was quantified according to the manufacturer's protocol. […]

APP/PS1 mice = test: Morris water maze (MWM) test; format: in vivo, mouse; details: 10 days training, probe trial day 11
Text: as §1, §2
The plasma solution thus obtained was intravenously injected 25 μl into mice twice a week for 4 weeks (total 8 times) according to the experimental outline shown in FIG. 2. […]
In order to identify potential effects on learning and memory, Morris water maze (MWM) and fear conditioning experiments were performed according to known methods. […] All experiments were recorded using a charge-coupled device (CCD) camera with video monitor and computer. […]

microglia = test: Activity of microglia (Iba1 staining), neuroinflammatory response; format: in vivo, mouse; details: APP/PS1 mice, brain tissue, vs untreated APP/PS1 mice
Text: as §1
(§3) After collecting blood from mice, the obtained blood was separated into erythrocytes and plasma by centrifugation. The separated erythrocytes are reacted with 10 uM sphingosine at 37° C. for 1 hour, and then reacted for 1 hour at 37° C. after mixing again with the separated plasma. […]
(§4) After fixing the cerebral (especially cortex) and hippocampus of mice with 4% paraformaldehyde, the immobilized tissues were incubated with 0.5% thioflavin S (Sigma-Aldrich) or anti-20G10 against Aβ42 (mouse, 1:1000), anti-G30 against Aβ40 (rabbit, 1:1000), anti-lba-1 (rabbit, 1:500, Wako), and anti-GFAP (rabbit, 1:500, DAKO), respectively. […] The sites were analyzed using a laser scanning confocal microscope or Olympus BX51 microscope equipped with Fluoview SV1000 imaging software (Olympus FV1000, Japan). Metamorph software (Molecular Devices) was used to quantify the percentage of area of stained area to area of total tissue. […]

astrocytes = test: Activity of astrocytes (GFAP staining), neuroinflammatory response; format: in vivo, mouse; details: APP/PS1 mice, brain tissue, vs untreated APP/PS1 mice
Text: as §1, §3, §4

amyloid-β = test: Amyloid-β deposition in brain tissue (cerebral cortex), thioflavin S staining and immunofluorescence; format: in vivo, mouse; details: APP/PS1 mice, vs 9-month-old untreated APP/PS1 mice
Text: as §1, §3, §4

tau = test: Tau deposition in brain tissue (AT8 immunofluorescence); format: in vivo, mouse; details: APP/PS1 mice, cerebral cortex, vs 9-month-old untreated APP/PS1 mice
Text: as §1, §3, §4

AD patients = details: cited from earlier work; for delaying cognitive decline compared to placebo: large-scale clinical trial, one year

## CCCCCCCCCCCCC/C=C/[C@@H](O)[C@@H](N)COP(=O)(O)O [S1P, Sphingosine-1-Phosphate]
[1]
  level of ApoM in plasma: did not show a difference
  level of HDL-ApoM in the HDL fraction: did not show a difference
  level of HDL-S1P in the HDL fraction: did not show a difference
  level of S1P in plasma: did not show a difference
APP/PS1 mice
  learning and memory (spatial memory formation), MWM: severe impairment
microglia
  inflammatory activity of microglia: no significant difference
astrocytes
  inflammatory activity of astrocytes: no significant difference
amyloid-β
  Aβ40 deposition in brain tissue: did not show a significant difference
  Aβ42 deposition in brain tissue: did not show a significant difference
tau
  tau deposition (AT8) in brain tissue: did not show a significant difference

## O=C(O)Cc1ccccc1Nc1c(Cl)cccc1Cl [diclofenac]
AD patients; mild to moderate AD patients, diclofenac in combination with misoprostol, after 25 weeks
  index of cognitive decline vs placebo: no significant difference

## CCN(CCO)CCCC(C)Nc1ccnc2cc(Cl)ccc12 (centres unmarked) [hydroxychloroquine]
AD patients; 18-month experiment
  preventing memory degradation: no protective effect

## COc1ccc2cc([C@H](C)C(=O)O)ccc2c1 [naproxen]
AD patients
  delaying cognitive decline compared to placebo: not effective

## CS(=O)(=O)Nc1ccc([N+](=O)[O-])cc1Oc1ccccc1 [nimesulide]
AD patients; AD patients, small 24-week studies
  rate of cognitive change: no significant difference

## C[C@]12C=CC(=O)C=C1CC[C@@H]1[C@@H]2C(=O)C[C@@]2(C)[C@H]1CC[C@]2(O)C(=O)CO [prednisone]
AD patients; low doses for one year
  cognitive decline, treatment vs placebo groups: no difference

## CS(=O)(=O)c1ccc(C2=C(c3ccccc3)C(=O)OC2)cc1 [rofecoxib]
AD patients
  delaying cognitive decline compared to placebo: not effective
AD patients; trial for 1 year
  efficacy in mild to moderate AD patients: ineffective
